Experimental findings from patent US20070032529A1, “Pyrazole compounds and their use as antidiabetes agents” (Japan Tobacco Inc., priority 2005, published 2007) are described below.

pIC50: −log10 of the molar value. Counter-ions that a name gives are not always drawn.

The target of assay [1] is T1, recombinant human liver glycogen phosphorylase (Homo sapiens, UniProt P06737).
T1 construct: made in house; host or cells: Sf9 insect cells (crude homogenate, diluted, used as the enzyme solution)
T1 sequence (P06737 1-847): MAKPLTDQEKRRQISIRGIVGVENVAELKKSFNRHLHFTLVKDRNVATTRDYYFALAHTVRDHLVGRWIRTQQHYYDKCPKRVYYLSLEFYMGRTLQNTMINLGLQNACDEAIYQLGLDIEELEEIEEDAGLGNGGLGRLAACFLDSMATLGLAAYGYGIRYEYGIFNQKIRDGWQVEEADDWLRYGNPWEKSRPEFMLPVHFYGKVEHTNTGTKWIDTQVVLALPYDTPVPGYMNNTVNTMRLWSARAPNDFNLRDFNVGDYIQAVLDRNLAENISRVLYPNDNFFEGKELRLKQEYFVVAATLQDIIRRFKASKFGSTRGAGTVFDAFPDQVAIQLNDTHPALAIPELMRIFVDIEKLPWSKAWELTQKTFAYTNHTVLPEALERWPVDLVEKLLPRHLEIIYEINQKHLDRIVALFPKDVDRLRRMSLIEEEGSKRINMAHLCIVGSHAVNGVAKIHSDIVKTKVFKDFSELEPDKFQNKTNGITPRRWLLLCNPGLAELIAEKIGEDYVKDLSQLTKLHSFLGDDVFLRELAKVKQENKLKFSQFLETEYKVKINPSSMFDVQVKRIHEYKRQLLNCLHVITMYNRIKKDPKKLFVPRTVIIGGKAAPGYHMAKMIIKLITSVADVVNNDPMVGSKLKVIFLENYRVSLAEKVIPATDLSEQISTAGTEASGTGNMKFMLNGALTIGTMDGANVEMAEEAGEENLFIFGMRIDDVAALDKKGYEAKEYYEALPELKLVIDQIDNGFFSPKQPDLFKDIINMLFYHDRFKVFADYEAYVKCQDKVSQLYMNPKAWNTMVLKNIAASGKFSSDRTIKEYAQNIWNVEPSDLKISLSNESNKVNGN
As to the kind of experiment: Measuring liver glycogen phosphorylase activity (forward reaction system, NADPH absorbance at 340 nm). It is filed as biochemical. In short, it runs like this:
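Compounds in 1% DMSO; activity taken as blank-subtracted 340 nm absorbance change across 75 min at room temperature. Forward reaction: glucose-1-phosphate released from glycogen converted by coupling enzymes, yielding NADPH; enzyme from recombinant Sf9 homogenate, reaction containing glucose, pH 6.8. IC50 from two-point linear interpolation.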

Another assay deals with db/db mice. As to the kind of experiment: Measuring blood plasma glucose concentration in db/db mice (hypoglycemic effect). It is filed as in vivo. The arrangement: key: ++: compounds exhibiting statistically significant hypoglycemic effect at a dose of 10 mg/kg or less; +: compounds exhibiting not significant but obvious hypoglycemic effect at a dose of 10 mg/kg. The following applies: for vivo (hypoglycemic effect in db/db mice): db/db mice fasted 4 h, oral administration, plasma glucose 1 and 3 hours after administration, dose 10 mg/kg or less, Dunnett test vs solvent; for vivo (hypoglycemic effect): db/db mice, blood plasma glucose, dose of 10 mg/kg or less. In short, it runs like this: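 db/db mice aged 9-18 weeks, grouped 5 or 8 per group matched on plasma glucose, fasted 4 h, then dosed orally with compound or 0.5% methylcellulose vehicle. Plasma glucose measured 1 and 3 h post-dose; each timepoint compared against vehicle by Dunnett test.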

The mark [2] stands for this setting: enzyme inhibitory activity with respect to liver glycogen phosphorylase, class symbols.
Where [3] appears, read: human liver glycogen phosphorylase, class symbol.

Broadly, the pIC50 is the IC50 on a negative log10 scale, so that one unit is a factor of ten. With `Cc1ccc(CNC(=O)c2cc(NC(=O)c3cc(F)c(F)cc3Cl)[nH]n2)c(Cl)n1` [Example 1-56], the negative-log IC50 (pIC50) in assay [1] (setting [2]) was more than 7.00. In addition, the “vivo (hypoglycemic effect in db/db mice)” value with db/db mice is “+”.
On to `COCCCN(C(=O)c1cc(NC(=O)c2cc(F)c(F)cc2Cl)[nH]n1)C1CCCCC1` [Example 1-99], for which, in assay [1] (setting [2]), the pIC50 is more than 7.00. For the same compound, in the assay on db/db mice, the “vivo (hypoglycemic effect in db/db mice)” value is given as “+”.
`O=C(NCc1cccnc1)c1cc(NC(=O)c2cc(F)c(Cl)cc2Cl)[nH]n1` [Example 7-4]: the pIC50 in assay [1] (setting [3]) is more than 7.00. Besides, the “vivo (hypoglycemic effect)” value in the assay on db/db mice is “++”.
For `O=C(NCc1nc2ccccc2[nH]1)c1cc(NC(=O)c2cc(F)c(F)cc2Cl)[nH]n1` [Example 1-42], the negative-log IC50 (pIC50) in assay [1] (setting [2]) is more than 7.00. For the same compound, the “vivo (hypoglycemic effect in db/db mice)” value with db/db mice is given as “+”.
In the same order, the values of `O=C(NCc1ccc(N2CCCC2)nc1)c1cc(NC(=O)c2cc(F)c(F)cc2Cl)[nH]n1` [Example 5-41] are more than 7.00 and “+”.
For `O=C(NCc1nc2ccccc2s1)c1cc(NC(=O)c2cc(F)c(F)cc2Cl)[nH]n1` [Example 1-52], in that order: more than 7.00 and “+”.
`COC(=O)c1cccc(CNC(=O)c2cc(NC(=O)c3cc(F)c(F)cc3Cl)[nH]n2)c1` [Example 3-38]: the negative-log IC50 (pIC50) in assay [1] (setting [2]) is more than 7.00. The “vivo (hypoglycemic effect in db/db mice)” value in the assay on db/db mice is “+”.
In the same order, the values of `Cc1ccnc(CNC(=O)c2cc(NC(=O)c3cc(F)c(F)cc3Cl)[nH]n2)c1` [Example 2-9] are more than 7.00 and “+”.
For `O=C(NCc1cccs1)c1cc(NC(=O)c2cc(F)c(F)cc2Cl)[nH]n1` [Example 3-26], the pIC50 in assay [1] (setting [2]) is more than 7.00. The “vivo (hypoglycemic effect in db/db mice)” value with db/db mice is listed as “+”.
For `CN(C(=O)c1cc(NC(=O)c2cc(F)c(F)cc2Cl)[nH]n1)c1ccc(-c2nsc(=O)[nH]2)cc1` [Example 6-16], the pIC50 in assay [1] (setting [3]) is more than 7.00. In addition, in the assay with db/db mice, the “vivo (hypoglycemic effect)” value was “+”.
`COCCN(C(=O)c1cc(NC(=O)c2cc(F)c(F)cc2Cl)[nH]n1)c1ccc(C(=O)O)cc1` [Example 4-48]: the negative-log IC50 (pIC50) in assay [1] (setting [2]) is more than 7.00. For the same compound, the “vivo (hypoglycemic effect in db/db mice)” value in the assay with db/db mice was “++”.
Turning to `N#Cc1ccc(CNC(=O)c2cc(NC(=O)c3cc(F)c(F)cc3Cl)[nH]n2)cc1` [Example 6-33], the pIC50 in assay [1] (setting [3]) was more than 7.00. Further, in the assay with db/db mice, the “vivo (hypoglycemic effect)” value is “+”.
Turning to `Cl.O=C(NCc1ccc2c(c1)OCO2)c1cc(NC(=O)c2cc(F)c(F)cc2Cl)[nH]n1` [Example 1-84], the pIC50 in assay [1] (setting [2]) is more than 7.00. In addition, the “vivo (hypoglycemic effect in db/db mice)” value in the assay with db/db mice is reported as “++”.
As to `CCOCCN(C(=O)c1cc(NC(=O)c2cc(F)c(F)cc2Cl)[nH]n1)C1CCCCC1` [Example 1-100], in assay [1] (setting [2]), the negative logarithm of the IC50 (pIC50) was more than 7.00. Moreover, the “vivo (hypoglycemic effect in db/db mice)” value in the assay on db/db mice was “+”.
For `Cc1noc(C)c1CNC(=O)c1cc(NC(=O)c2cc(F)c(F)cc2Cl)[nH]n1` [Example 1-46], in that order: more than 7.00 and “++”.
Regarding `Cc1cccc(CNC(=O)c2cc(NC(=O)c3cc(F)c(F)cc3Cl)[nH]n2)n1` [Example 2-11], the pIC50 in assay [1] (setting [2]) is more than 7.00. Besides, the “vivo (hypoglycemic effect in db/db mice)” value in the assay on db/db mice is listed as “+”.
For `Cc1cc(C)c(CNC(=O)c2cc(NC(=O)c3cc(F)c(F)cc3Cl)[nH]n2)cn1` [Example 2-4-1, 5-(2-chloro-4,5-difluoro-benzoylamino)-1H-pyrazole-3-carboxylic acid (4,6-dimethyl-pyridin-3-ylmethyl)-amide dihydrochloride], in that order: more than 7.00 and “++”.
For `O=C(Nc1cc(C(=O)N(Cc2ccccn2)C2CCCCC2)n[nH]1)c1cc(F)c(F)cc1Cl` [Example 1-82], in that order: more than 7.00 and “+”.
On to `Cc1cccc(CNC(=O)c2cc(NC(=O)c3cc(F)c(F)cc3Cl)[nH]n2)c1` [Example 3-33], for which the negative-log IC50 (pIC50) in assay [1] (setting [2]) is more than 7.00. Moreover, the “vivo (hypoglycemic effect in db/db mice)” value with db/db mice is reported as “+”.
Consider `Cc1cccnc1CNC(=O)c1cc(NC(=O)c2cc(F)c(F)cc2Cl)[nH]n1` [Example 2-8], for which the pIC50 in assay [1] (setting [2]) was more than 7.00. In addition, the “vivo (hypoglycemic effect in db/db mice)” value in the assay on db/db mice is given as “+”.
In the case of `O=C(NCc1cscn1)c1cc(NC(=O)c2cc(F)c(F)cc2Cl)[nH]n1` [Example 1-38], in assay [1] (setting [2]), the pIC50 is more than 7.00. The “vivo (hypoglycemic effect in db/db mice)” value in the assay with db/db mice is recorded as “+”.
For the compound `CCCN(C(=O)c1cc(NC(=O)c2cc(F)c(F)cc2Cl)[nH]n1)C1CCCCC1` [Example 1-88], the negative logarithm of the IC50 (pIC50) in assay [1] (setting [2]) was more than 7.00. Besides, the “vivo (hypoglycemic effect in db/db mice)” value with db/db mice is “+”.
Take `CCOCCN(C(=O)c1cc(NC(=O)c2cc(F)c(F)cc2Cl)[nH]n1)c1ccccc1` [Example 4-18]: in assay [1] (setting [2]), the negative-log IC50 (pIC50) is more than 7.00. The “vivo (hypoglycemic effect in db/db mice)” value in the assay with db/db mice was “+”.
`CCCN(CCOC)C(=O)c1cc(NC(=O)c2cc(F)c(F)cc2Cl)[nH]n1` [Example 1-95]: in assay [1] (setting [2]), the negative-log IC50 (pIC50) is more than 7.00. Also, the “vivo (hypoglycemic effect in db/db mice)” value in the assay on db/db mice is on record as “+”.
Turning to `CN(C)c1ccc(CNC(=O)c2cc(NC(=O)c3cc(F)c(F)cc3Cl)[nH]n2)cn1` [Example 5-27], the negative-log IC50 (pIC50) in assay [1] (setting [2]) was more than 7.00. For the same compound, the “vivo (hypoglycemic effect in db/db mice)” value in the assay on db/db mice (10 mg/kg) is recorded as “++”.
Consider `O=C(NCc1cccnc1Cl)c1cc(NC(=O)c2cc(F)c(F)cc2Cl)[nH]n1` [Example 2-24], for which, in assay [1] (setting [2]), the negative logarithm of the IC50 (pIC50) is more than 7.00. For the same compound, the “vivo (hypoglycemic effect in db/db mice)” value in the assay on db/db mice was “+”.
With `O=C(NCc1ccccc1)c1cc(NC(=O)c2cc(F)c(F)cc2Cl)[nH]n1` [Example 3-2, 5-(2-chloro-4,5-difluoro-benzoylamino)-1H-pyrazole-3-carboxylic acid benzylamide], in assay [1] (setting [2]), the pIC50 is 6.52 to 7.00. In the assay with db/db mice, the “vivo (hypoglycemic effect in db/db mice)” value is “+”.
In the same order, the values of `CCCN(Cc1ccc(OC)nc1)C(=O)c1cc(NC(=O)c2cc(F)c(F)cc2Cl)[nH]n1` [Example 1-116] are more than 7.00 and “++”.
On to `CC(C)Oc1ncccc1CNC(=O)c1cc(NC(=O)c2cc(F)c(F)cc2Cl)[nH]n1` [Example 1-24], for which, in assay [1] (setting [2]), the negative-log IC50 (pIC50) was more than 7.00. Moreover, in the assay on db/db mice, the “vivo (hypoglycemic effect in db/db mice)” value is on record as “+”.
As for `Cc1ncccc1CNC(=O)c1cc(NC(=O)c2cc(F)c(F)cc2Cl)[nH]n1` [Example 2-28], the pIC50 in assay [1] (setting [2]) was more than 7.00. In the assay on db/db mice, the “vivo (hypoglycemic effect in db/db mice)” value is given as “+”.
Take `O=C(NCc1ccc(Cl)nc1)c1cc(NC(=O)c2cc(F)c(F)cc2Cl)[nH]n1` [Example 2-23]: in assay [1] (setting [2]), the pIC50 is more than 7.00. Further, the “vivo (hypoglycemic effect in db/db mice)” value in the assay on db/db mice was “+”.
Consider `COc1ccc(CNC(=O)c2cc(NC(=O)c3cc(F)c(F)cc3C)[nH]n2)cn1` [Example 5-2], for which the pIC50 in assay [1] (setting [2]) was more than 7.00. Moreover, the “vivo (hypoglycemic effect in db/db mice)” value in the assay with db/db mice is “+”.
Turning to `Cl.O=C(NCc1ccncc1)c1cc(NC(=O)c2cc(F)c(F)cc2Cl)[nH]n1` [Example 3-21], the pIC50 in assay [1] (setting [2]) is more than 7.00. Further, the “vivo (hypoglycemic effect in db/db mice)” value in the assay with db/db mice is recorded as “++”.
In the same order, the values of `Cc1ncoc1CNC(=O)c1cc(NC(=O)c2cc(F)c(F)cc2Cl)[nH]n1` [Example 1-2, 5-(2-chloro-4,5-difluoro-benzoylamino)-1H-pyrazole-3-carboxylic acid (4-methyl-oxazol-5-ylmethyl)-amide] are more than 7.00 and “++”.
For `O=C(NCc1cccc(F)c1F)c1cc(NC(=O)c2cc(F)c(F)cc2Cl)[nH]n1` [Example 1-18], in that order: more than 7.00 and “+”.
`Nc1ccc(CNC(=O)c2cc(NC(=O)c3cc(F)c(F)cc3Cl)[nH]n2)cc1` [Example 3-31]: in assay [1] (setting [2]), the pIC50 is more than 7.00. Further, the “vivo (hypoglycemic effect in db/db mice)” value in the assay on db/db mice is “+”.
On to `COc1ccc(CNC(=O)c2cc(NC(=O)c3cc(F)c(F)cc3Cl)[nH]n2)c(OC)n1` [Example 3-46], for which the pIC50 in assay [1] (setting [2]) was more than 7.00. In addition, the “vivo (hypoglycemic effect in db/db mice)” value with db/db mice was “+”.
In the same order, the values of `CCCN(Cc1cccnc1)C(=O)c1cc(NC(=O)c2cc(F)c(F)cc2Cl)[nH]n1` [Example 1-117] are more than 7.00 and “+”.
